Patent publication US20230302014A1, “USES OF GLUCOCORTICOID RECEPTOR (GR) ANTAGONIST AND ANDROGEN RECEPTOR (AR) DEGRADER COMBINATIONS” (ORIC Pharmaceuticals, Inc., priority 2020, published 2023)

Tests used:
Assay type in all cases: cell-based, Human
GR protein = assay: Western blot of GR protein after dose-dependent or time-dependent AR degrader treatment; settings: LNCaP and CWR22PC cells, 3 days, increasing doses 3-1000 nM
Experimental: LNCaP and CWR22PC cells were plated in seven 15-cm dishes (Corning#353025) at a density of 5 million cells per dish in RPMI-1640 media supplemented with 10% charcoal-stripped serum (CSS; OmegaScientific#FB4). After 24 hours, the cells were treated with 0, 3, 10, 30, 100, 300 and 1000 nM of ARD1 or ARD2 and incubated at 37° C. for 3 days. The cells were then trypsinized (Corning#25-053-CI) and harvested for transcript (RT-qPCR) and protein (western blot) analysis.
5 million of LNCaP and CWR22PC cells per dish were plated in five 15-cm dishes in 20 mL of RPMI-1640 media supplemented with 10% charcoal-stripped serum (CSS) and cultured at 37° C. for 24 hours. Cells were treated with 30 nM of dexamethasone and with 100 nM of ARD1 or ARD2 and maintained at 37° C. until harvest. On Day 0, 6, 10, 13, and 15, cells were trypsinized, cell pellets were washed with 1XPBS and then divided for mRNA and protein preparation.
Cell pellets were washed with PBS and lysed in RIPA buffer (VWR#AAJ63306-AK) supplemented with […] (VWR #AAJ65789-LQ). Resuspended cells were briefly sonicated for ~30 seconds using a probe sonicator and incubated on ice for 40 minutes, followed with centrifugation at 12,000 rpm for 15 minutes at 4° C. to collect the supernatant. Protein concentration was quantitated using Quick Start™ Bradford Protein Assay Kit (Bio-Rad #5000201). […]

CWR22PC cells = assay: Cell growth (cell number) of prostate cancer cells under long-term treatment; settings: CWR22PC; CSS media; 21 days; 0.1 nM R1881 + 1 µM ARV-110, + 30 nM dexamethasone, + 0.5 µM compound 1
Experimental: (§1) CWR22PC cells were seeded at a density of 2 × 10^5 cells/well in 6-well plates (Corning# 3516) in 2 mL of RPMI-1640 media supplemented with 10% charcoal-stripped serum (CSS) in duplicate. 24 hours later, cells were treated with 100 pM R1881, 30 nM dexamethasone, 0.5 µM compound 1, 1 µM of ARD1 or ARD2, or combinations thereof as indicated. Fresh media containing the indicated treatment was replaced every 5-7 days. Cell supernatant was collected on Day 12 and 19 and stored at -80° C. for PSA AlphaLISA assay. Cell images were taken on Day 12 and 19 using Leica DMi8 microscope (LEICA MICROSYSTEMS, INC. IL) with a 10X magnification. Cells were then trypsinized and cell numbers in each treatment group were counted three times, average counts were plotted with GraphPad Prism 8. Cell pellets were washed once with 1XPBS and then lysed in 600 µL RLT RNA lysis buffer and stored at -80° C. RNA was extracted for end of study (EOS) biomarker analysis for which the detailed procedures are described in the section RNA Extraction and RT-qPCR analysis.
The impact of ARD1 and ARD2 on the growth of prostate cancer cells was explored. CWR22PC cells were plated in charcoal-stripped serum (CSS) media and treated with vehicle or 0.1 nM R1881 (synthetic AR ligand) without or with 1 µM of ARD1 or ARD2. Media with treatments were replaced every 5-7 days and cells were maintained at 37° C. for 22 days. Supernatant of each group was harvested at day 22 to measure PSA secretion by PSA AlphaLISA assays.
as §1, with “24 hours later, cells were treated with 100 pM R1881, 30 nM dexamethasone, 0.5 µM compound 1, 1 µM of ARD1 or ARD2, or combinations thereof as indicated.” left out, “15” for “12”, “21” for “19”, “assay.” for “assay. Cell images were taken on Day 12 and 19 using Leica DMi8 microscope (LEICA MICROSYSTEMS, INC. IL) with a 10X magnification.”

[1] = system: GR target genes GILZ, PER1, KLF9, SGK1; assay: RT-qPCR of GR target genes after time-dependent AR degrader treatment; settings: LNCaP and CWR22PC cells; 100 nM degrader; 30 nM dexamethasone; 0, 6, 10, 13, 15 days
Experimental: (§2) Adherent cells or cell pellets harvested for mRNA analysis were first washed once with PBS and then resuspended in 600 µL of RLT lysis buffer (Qiagen Inc.) supplemented with 1% of betamercaptoethanol. RNA was extracted by QIAcube using the RNeasy Mini QIAcube kit (Qiagen#74116) according to manufacturer’s instructions. The extracted RNA samples were then quantified using a Nanodrop 8000 Spectrophotometer. RT-qPCR reactions were set up in triplicate using 3 µL of 3 ng/ µL of RNA in 7 µL of pre-mixed SensiFAST™ SYBR No-ROX One-Step Kit reagents (BIOLINE# BIO-98005). The RT-qPCR reactions were run on a Bio-Rad CFX384 Real-Time PCR System and data was plotted with GraphPad Prism 8 software.

[2] = system: AR and GR target genes in CWR22PC cells; assay: End of study (EOS) biomarker analysis by RT-qPCR; settings: CSS media, day 21 EOS, 0.1 nM R1881 + 1 µM ARV-110, + 30 nM dexamethasone, + 0.5 µM compound 1
Experimental: as §1, §2
CWR22PC cells were seeded at a density of 2 × 10^5 cells/well in 6-well plates (Corning# 3516) in 2 mL of RPMI-1640 media supplemented with 10% charcoal-stripped serum (CSS) in duplicate. […] Cells were then trypsinized and cell numbers in each treatment group were counted three times, average counts were plotted with GraphPad Prism 8. […]

## N#Cc1ccc(O[C@H]2CC[C@H](NC(=O)c3ccc(N4CCC(CN5CCN(c6cc7c(cc6F)C(=O)N(C6CCC(=O)NC6=O)C7=O)CC5)CC4)nn3)CC2)cc1Cl (stereo partly drawn) [ARV-110, N-[trans-4-(3-chloro-4-cyanophenoxy)cyclohexyl]-6-[4-[[4-[2-(2,6-dioxo-3-piperidinyl)-6-fluoro-2,3-dihydro-1,3-dioxo-1H-isoindol-5-yl]-1-piperazinyl]methyl]-1-piperidinyl]-3-pyridazinecarboxamide]
GR protein
  GR protein levels: minimally impacting
CWR22PC cells
  R1881-induced cell growth: blunts
[1]
  expression of GR target genes including GILZ, PER1, KLF9, and SGK1: most of the GR target genes are upregulated in a time dependent manner
[2]
  R1881-induced target gene (biomarker) expression: blunts
